Experimental data: the supplement of paper PMC13380429

Columns and labels:
Settings in all cases: 72 h
Vero E6 [1] = assay: drug sensitivity score (DSS) for viability; higher = more toxic; extreme values may be limits of the assay
Calu-3 [2] = assay: as above
U2OS [3] = assay: as above
Caco-2 [4] = assay: as above
HepG2 [5] = assay: as above
Vero E6 [6] = assay: cell viability relative to DMSO; higher = less toxic
Calu-3 [7] = assay: as above
U2OS [8] = assay: as above
Caco-2 [9] = assay: as above
HepG2 [10] = assay: as above
Vero E6 [11] = assay: relative viability EC50 (midpoint between 100% and the lowest measured viability); higher = less toxic
Calu-3 [12] = assay: as above
U2OS [13] = assay: as above
Caco-2 [14] = assay: as above
HepG2 [15] = assay: as above

| SMILES | drug sensitivity score (Vero E6 [1]) | drug sensitivity score (Calu-3 [2]) | drug sensitivity score (U2OS [3]) | drug sensitivity score (Caco-2 [4]) | drug sensitivity score (HepG2 [5]) | cell viability (Vero E6 [6]; 1 nM) [%] | cell viability (Vero E6 [6]; 10 nM) [%] | cell viability (Vero E6 [6]; 100 nM) [%] | cell viability (Vero E6 [6]; 1000 nM) [%] | cell viability (Vero E6 [6]; 10000 nM) [%] | cell viability (Calu-3 [7]; 1 nM) [%] | cell viability (Calu-3 [7]; 10 nM) [%] | cell viability (Calu-3 [7]; 100 nM) [%] | cell viability (Calu-3 [7]; 1000 nM) [%] | cell viability (Calu-3 [7]; 10000 nM) [%] | cell viability (U2OS [8]; 1 nM) [%] | cell viability (U2OS [8]; 10 nM) [%] | cell viability (U2OS [8]; 100 nM) [%] | cell viability (U2OS [8]; 1000 nM) [%] | cell viability (U2OS [8]; 10000 nM) [%] | cell viability (Caco-2 [9]; 1 nM) [%] | cell viability (Caco-2 [9]; 10 nM) [%] | cell viability (Caco-2 [9]; 100 nM) [%] | cell viability (Caco-2 [9]; 1000 nM) [%] | cell viability (Caco-2 [9]; 10000 nM) [%] | cell viability (HepG2 [10]; 1 nM) [%] | cell viability (HepG2 [10]; 10 nM) [%] | cell viability (HepG2 [10]; 100 nM) [%] | cell viability (HepG2 [10]; 1000 nM) [%] | cell viability (HepG2 [10]; 10000 nM) [%] | relative viability EC50 (Vero E6 [11]) [µM] | relative viability EC50 (Calu-3 [12]) [µM] | relative viability EC50 (U2OS [13]) [µM] | relative viability EC50 (Caco-2 [14]) [µM] | relative viability EC50 (HepG2 [15]) [µM] |
| --- | --- | --- | --- | --- | --- | --- | --- | --- | --- | --- | --- | --- | --- | --- | --- | --- | --- | --- | --- | --- | --- | --- | --- | --- | --- | --- | --- | --- | --- | --- | --- | --- | --- | --- | --- |
| CCOC(=O)[C@@H](N)Cc1ccc(-c2cc(O[C@H](c3ccc(Cl)cc3-n3ccc(C)n3)C(F)(F)F)nc(N)n2)cc1 [telotristat-ethyl] | 0 | 0 | 0 | 0 | 0 | 96.6 | 91.8 | 95.2 | 95.5 | 107 | 96.6 | 99.7 | 106 | 91.1 | 95.4 | 96.6 | 93.5 | 93.6 | 100 | 96.4 | 97.3 | 89.6 | 104 | 99.4 | 88.6 | 97.7 | 106 | 94.5 | 102 | 113 | > 10 | > 10 | > 10 | > 10 | > 10 |
| COc1cc2nc(N3CCN(C(=O)C4CCCO4)CC3)nc(N)c2cc1OC (stereo not given) [terazosin] | 0 | 0 | 0 | 0 | 0 | 96.4 | 95.4 | 97 | 92.9 | 104 | 96.1 | 106 | 105 | 99.9 | 96.3 | 97.8 | 102 | 96 | 101 | 103 | 104 | 95.3 | 95.4 | 92.5 | 95.3 | 107 | 96.7 | 101 | 103 | 112 | > 10 | > 10 | > 10 | > 10 | > 10 |
| C/C(O)=C(\C#N)C(=O)Nc1ccc(C(F)(F)F)cc1 [teriflunomide] | 0 | 0 | 0 | 0 | 0 | 102 | 101 | 97.1 | 98.2 | 93.9 | 104 | 97.2 | 95.3 | 105 | 94.2 | 102 | 98 | 102 | 99.8 | 99.7 | 98.1 | 98.2 | 102 | 95.1 | 94.1 | 104 | 107 | 93.4 | 98.1 | 94.4 | > 10 | > 10 | > 10 | > 10 | > 10 |
| COc1ccc(CN(CCN(C)C)c2ncccn2)cc1 [thonzylamine] | 0 | 0 | 0 | 0 | 0 | 102 | 102 | 98.1 | 104 | 95.9 | 96.2 | 103 | 96.9 | 92.5 | 101 | 97.2 | 101 | 96 | 98.3 | 105 | 99.7 | 104 | 93.8 | 101 | 105 | 93.2 | 103 | 97.6 | 102 | 98.9 | > 10 | > 10 | > 10 | > 10 | > 10 |
| C[N+]12CCCCC1CCC(=C(c1cccs1)c1cccs1)C2 (stereo not given) [tiquizium] | 0 | 0 | 0 | 0 | 0 | 106 | 88.6 | 98.3 | 87 | 100 | 100 | 102 | 97.8 | 111 | 99 | 98.1 | 99.2 | 94.3 | 103 | 102 | 89.3 | 96.3 | 89.7 | 90.3 | 100 | 103 | 86.9 | 98.9 | 93.7 | 94 | > 10 | > 10 | > 10 | > 10 | > 10 |
| CCCCNC(=O)NS(=O)(=O)c1ccc(C)cc1 [tolbutamide] | 0 | 0 | 0 | 0 | 0 | 104 | 103 | 105 | 102 | 97.4 | 95.1 | 90.2 | 95.7 | 107 | 94.3 | 101 | 98.5 | 99.2 | 96.7 | 98.6 | 101 | 96.7 | 96.2 | 96.3 | 96.3 | 87.5 | 98 | 103 | 94.3 | 99.9 | > 10 | > 10 | > 10 | > 10 | > 10 |
| CCOc1cc(OCC)c(C(=O)CCC(=O)O)cc1OCC [trepibutone] | 0 | 0 | 0 | 0 | 0 | 94.5 | 105 | 99.8 | 97.3 | 92.7 | 108 | 105 | 107 | 102 | 99.8 | 101 | 94.3 | 94.5 | 100 | 96.6 | 98.6 | 98.4 | 102 | 101 | 96.7 | 100 | 96.9 | 104 | 98.1 | 99.9 | > 10 | > 10 | > 10 | > 10 | > 10 |
| CC(C)C[C@H](NC(=O)[C@@H](Cc1c[nH]c2ccccc12)NC(=O)[C@H](Cc1ccc(O)cc1)NC(=O)[C@H](CO)NC(=O)[C@H](Cc1c[nH]c2ccccc12)NC(=O)[C@H](Cc1c[nH]cn1)NC(=O)[C@@H]1CCC(=O)N1)C(=O)N[C@@H](CCCNC(=N)N)C(=O)N1CCC[C@H]1C(=O)NCC(N)=O [triptorelin] | 0 | 0 | 0 | 0 | 0 | 94.5 | 98.5 | 98 | 74.8 | 107 | 90.2 | 80.1 | 90 | 99.2 | 106 | 91.2 | 102 | 96.8 | 99.2 | 108 | 95.7 | 110 | 92.8 | 102 | 110 | 102 | 86.3 | 93 | 110 | 120 | > 10 | > 10 | > 10 | > 10 | > 10 |
| CN1[C@@H]2CC[C@H]1C[C@@H](OC(=O)c1c[nH]c3ccccc13)C2 [tropisetron] | 0 | 0 | 0 | 0 | 0 | 98.2 | 97.3 | 98.2 | 99.9 | 96.2 | 100 | 93.8 | 99.9 | 88.6 | 97.6 | 104 | 103 | 96.8 | 100 | 98.3 | 102 | 108 | 101 | 103 | 97.5 | 100 | 101 | 93.1 | 96.7 | 101 | > 10 | > 10 | > 10 | > 10 | > 10 |
| CCC(CO)(C(=O)OC1CC2CCC(C1)[N+]2(C)C)c1ccccc1 (stereo not given) [troventol] | 0 | 0 | 0 | 0 | 0 | 93.7 | 96 | 86.6 | 97.8 | 110 | 99.8 | 94.6 | 91.8 | 102 | 93.9 | 97.3 | 94.3 | 99.4 | 97.8 | 105 | 92.5 | 92.6 | 98.5 | 94.2 | 94.2 | 93.6 | 103 | 93.1 | 107 | 113 | > 10 | > 10 | > 10 | > 10 | > 10 |
| Cc1cc(Cn2nnc3c(-c4ccco4)nc(N)nc32)ccc1N [vipadenant] | 0.2 | 0 | 0 | 0 | 0 | 109 | 105 | 99.7 | 92.8 | 88.7 | 108 | 103 | 108 | 94.1 | 107 | 99.6 | 97.7 | 98.2 | 98.7 | 101 | 110 | 106 | 115 | 113 | 97.1 | 81.9 | 80.5 | 99 | 91.8 | 96.3 | > 10 | > 10 | > 10 | > 10 | > 10 |
| O=C(O)c1ccccc1-c1ccc(C(F)(F)F)cc1 [xenalipin] | 0 | 0 | 0 | 0 | 0 | 98.6 | 104 | 92.2 | 98.6 | 98.2 | 101 | 101 | 111 | 98.6 | 107 | 100 | 95.8 | 103 | 98 | 105 | 97.1 | 92.8 | 99 | 92.1 | 97.6 | 89.1 | 90.8 | 94.6 | 97 | 109 | > 10 | > 10 | > 10 | > 10 | > 10 |
| O=C1Cc2cc(CCN3CCN(c4nsc5ccccc45)CC3)c(Cl)cc2N1 [ziprasidone] | 0 | 0 | 0 | 0.8 | 0.2 | 106 | 105 | 95.8 | 104 | 98.4 | 103 | 97.8 | 91.9 | 97.4 | 108 | 101 | 99.4 | 100 | 98.9 | 96.4 | 100 | 90.5 | 98.3 | 102 | 75.6 | 105 | 120 | 102 | 103 | 83.8 | > 10 | > 10 | > 10 | > 10 | > 10 |
